# According to ChEMBL document CHEMBL3352641, “Discovery of pyrrolo[1,2-b]pyridazine-3-carboxamides as Janus kinase (JAK) inhibitors” (Bioorg Med Chem Lett, 2014):
# Key:
# [1] = target: T1, Tyrosine-protein kinase JAK3 (Homo sapiens, UniProt P52333); test: Inhibition of JAK3 (unknown origin) by filter assay
# T1 sequence (P52333 whole entry): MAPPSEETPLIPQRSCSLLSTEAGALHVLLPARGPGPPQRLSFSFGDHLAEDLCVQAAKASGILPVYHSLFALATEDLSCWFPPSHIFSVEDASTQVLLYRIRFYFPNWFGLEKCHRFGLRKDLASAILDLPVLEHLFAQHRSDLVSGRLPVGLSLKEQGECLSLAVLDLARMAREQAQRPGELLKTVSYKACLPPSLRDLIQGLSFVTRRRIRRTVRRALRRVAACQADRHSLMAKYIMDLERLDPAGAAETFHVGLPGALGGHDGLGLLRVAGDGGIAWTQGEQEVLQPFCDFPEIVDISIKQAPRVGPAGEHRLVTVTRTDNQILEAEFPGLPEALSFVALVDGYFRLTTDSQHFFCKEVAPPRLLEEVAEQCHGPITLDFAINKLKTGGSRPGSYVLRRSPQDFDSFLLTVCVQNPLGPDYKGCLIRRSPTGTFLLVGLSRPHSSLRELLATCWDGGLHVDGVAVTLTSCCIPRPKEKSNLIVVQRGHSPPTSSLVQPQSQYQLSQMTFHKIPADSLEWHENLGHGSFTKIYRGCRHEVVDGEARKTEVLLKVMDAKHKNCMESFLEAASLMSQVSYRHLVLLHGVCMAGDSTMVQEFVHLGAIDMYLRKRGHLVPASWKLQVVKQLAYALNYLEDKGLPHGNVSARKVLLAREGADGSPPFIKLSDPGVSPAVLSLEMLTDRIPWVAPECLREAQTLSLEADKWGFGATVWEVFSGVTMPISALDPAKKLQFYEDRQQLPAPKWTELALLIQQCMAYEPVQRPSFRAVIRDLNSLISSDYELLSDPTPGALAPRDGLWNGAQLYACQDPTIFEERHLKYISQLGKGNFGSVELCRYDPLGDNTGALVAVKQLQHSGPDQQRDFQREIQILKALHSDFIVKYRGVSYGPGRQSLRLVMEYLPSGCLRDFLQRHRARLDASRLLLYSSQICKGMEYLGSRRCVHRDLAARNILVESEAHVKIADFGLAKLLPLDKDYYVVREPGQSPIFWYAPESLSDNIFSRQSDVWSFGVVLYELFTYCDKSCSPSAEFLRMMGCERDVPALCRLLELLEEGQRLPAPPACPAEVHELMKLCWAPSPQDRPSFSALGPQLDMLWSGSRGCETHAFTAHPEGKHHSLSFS
# [2] = target: Tyrosine-protein kinase JAK1 (Homo sapiens, UniProt P23458); test: Inhibition of JAK1 (unknown origin) bycaliper assay
# Chain of Tyrosine-protein kinase JAK1 (P23458 whole entry): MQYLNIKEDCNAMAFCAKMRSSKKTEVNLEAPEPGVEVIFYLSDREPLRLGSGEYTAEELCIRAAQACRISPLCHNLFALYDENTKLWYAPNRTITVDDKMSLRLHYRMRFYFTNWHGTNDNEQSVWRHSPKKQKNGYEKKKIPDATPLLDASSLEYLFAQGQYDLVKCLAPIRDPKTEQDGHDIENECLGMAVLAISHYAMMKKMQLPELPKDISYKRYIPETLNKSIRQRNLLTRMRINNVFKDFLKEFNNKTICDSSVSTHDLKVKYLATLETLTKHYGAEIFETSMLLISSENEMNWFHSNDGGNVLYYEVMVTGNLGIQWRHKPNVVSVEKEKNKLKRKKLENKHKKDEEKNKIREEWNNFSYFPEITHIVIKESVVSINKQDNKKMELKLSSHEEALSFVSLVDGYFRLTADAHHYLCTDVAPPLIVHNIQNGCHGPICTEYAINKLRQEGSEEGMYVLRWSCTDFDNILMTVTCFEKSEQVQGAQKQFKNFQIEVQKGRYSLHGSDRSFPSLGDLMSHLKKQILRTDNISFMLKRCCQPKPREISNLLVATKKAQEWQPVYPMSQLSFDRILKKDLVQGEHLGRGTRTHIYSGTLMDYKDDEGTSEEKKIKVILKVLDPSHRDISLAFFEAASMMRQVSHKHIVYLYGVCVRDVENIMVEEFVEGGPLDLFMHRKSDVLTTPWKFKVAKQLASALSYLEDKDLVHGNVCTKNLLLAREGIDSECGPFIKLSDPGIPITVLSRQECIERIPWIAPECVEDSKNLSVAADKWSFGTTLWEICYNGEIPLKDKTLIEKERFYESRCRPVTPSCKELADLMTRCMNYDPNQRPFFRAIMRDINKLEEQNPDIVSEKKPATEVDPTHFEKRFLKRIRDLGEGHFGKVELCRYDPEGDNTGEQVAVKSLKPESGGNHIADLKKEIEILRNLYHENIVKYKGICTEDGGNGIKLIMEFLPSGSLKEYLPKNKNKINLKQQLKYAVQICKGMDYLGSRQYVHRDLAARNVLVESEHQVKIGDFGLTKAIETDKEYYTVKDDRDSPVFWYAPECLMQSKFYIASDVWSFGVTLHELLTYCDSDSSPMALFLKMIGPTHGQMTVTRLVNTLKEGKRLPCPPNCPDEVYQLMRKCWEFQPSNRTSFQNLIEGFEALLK
# [3] = target: Non-receptor tyrosine-protein kinase TYK2 (Homo sapiens, UniProt P29597); test: Inhibition of TYK2 (unknown origin) by caliper assay
# Chain of Non-receptor tyrosine-protein kinase TYK2 (P29597 whole entry): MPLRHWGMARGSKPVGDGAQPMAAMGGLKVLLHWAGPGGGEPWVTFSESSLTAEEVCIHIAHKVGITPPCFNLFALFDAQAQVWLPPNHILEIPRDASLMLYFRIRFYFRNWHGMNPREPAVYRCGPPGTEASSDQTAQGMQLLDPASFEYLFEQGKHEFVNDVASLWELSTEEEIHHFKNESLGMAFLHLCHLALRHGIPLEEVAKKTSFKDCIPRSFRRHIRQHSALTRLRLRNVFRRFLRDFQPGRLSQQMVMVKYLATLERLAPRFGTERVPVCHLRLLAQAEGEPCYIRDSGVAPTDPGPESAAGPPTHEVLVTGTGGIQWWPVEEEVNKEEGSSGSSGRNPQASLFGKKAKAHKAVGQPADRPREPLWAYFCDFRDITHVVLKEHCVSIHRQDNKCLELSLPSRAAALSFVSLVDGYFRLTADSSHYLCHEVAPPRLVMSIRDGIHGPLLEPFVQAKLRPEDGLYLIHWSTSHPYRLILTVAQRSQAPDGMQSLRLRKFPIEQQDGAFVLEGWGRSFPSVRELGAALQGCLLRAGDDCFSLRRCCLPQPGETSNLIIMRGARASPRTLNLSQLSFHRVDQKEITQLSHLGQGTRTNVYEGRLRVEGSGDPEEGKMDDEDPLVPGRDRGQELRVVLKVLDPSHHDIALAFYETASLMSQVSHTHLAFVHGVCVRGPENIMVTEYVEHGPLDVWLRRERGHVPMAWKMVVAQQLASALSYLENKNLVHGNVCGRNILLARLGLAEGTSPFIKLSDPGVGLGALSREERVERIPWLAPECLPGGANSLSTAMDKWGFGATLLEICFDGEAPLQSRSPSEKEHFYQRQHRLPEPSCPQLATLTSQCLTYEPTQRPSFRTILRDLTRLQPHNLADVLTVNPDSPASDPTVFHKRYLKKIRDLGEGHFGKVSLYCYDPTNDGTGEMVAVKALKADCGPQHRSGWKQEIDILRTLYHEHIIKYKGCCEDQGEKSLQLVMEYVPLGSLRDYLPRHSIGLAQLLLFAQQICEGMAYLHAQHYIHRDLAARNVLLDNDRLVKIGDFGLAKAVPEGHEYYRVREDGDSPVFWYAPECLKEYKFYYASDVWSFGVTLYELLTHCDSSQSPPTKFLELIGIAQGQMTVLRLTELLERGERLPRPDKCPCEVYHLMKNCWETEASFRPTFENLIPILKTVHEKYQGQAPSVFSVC
# [4] = target: Tyrosine-protein kinase JAK2 (Homo sapiens, UniProt O60674); test: Inhibition of JAK2 (unknown origin) by caliper assay
# Chain of Tyrosine-protein kinase JAK2 (O60674 whole entry): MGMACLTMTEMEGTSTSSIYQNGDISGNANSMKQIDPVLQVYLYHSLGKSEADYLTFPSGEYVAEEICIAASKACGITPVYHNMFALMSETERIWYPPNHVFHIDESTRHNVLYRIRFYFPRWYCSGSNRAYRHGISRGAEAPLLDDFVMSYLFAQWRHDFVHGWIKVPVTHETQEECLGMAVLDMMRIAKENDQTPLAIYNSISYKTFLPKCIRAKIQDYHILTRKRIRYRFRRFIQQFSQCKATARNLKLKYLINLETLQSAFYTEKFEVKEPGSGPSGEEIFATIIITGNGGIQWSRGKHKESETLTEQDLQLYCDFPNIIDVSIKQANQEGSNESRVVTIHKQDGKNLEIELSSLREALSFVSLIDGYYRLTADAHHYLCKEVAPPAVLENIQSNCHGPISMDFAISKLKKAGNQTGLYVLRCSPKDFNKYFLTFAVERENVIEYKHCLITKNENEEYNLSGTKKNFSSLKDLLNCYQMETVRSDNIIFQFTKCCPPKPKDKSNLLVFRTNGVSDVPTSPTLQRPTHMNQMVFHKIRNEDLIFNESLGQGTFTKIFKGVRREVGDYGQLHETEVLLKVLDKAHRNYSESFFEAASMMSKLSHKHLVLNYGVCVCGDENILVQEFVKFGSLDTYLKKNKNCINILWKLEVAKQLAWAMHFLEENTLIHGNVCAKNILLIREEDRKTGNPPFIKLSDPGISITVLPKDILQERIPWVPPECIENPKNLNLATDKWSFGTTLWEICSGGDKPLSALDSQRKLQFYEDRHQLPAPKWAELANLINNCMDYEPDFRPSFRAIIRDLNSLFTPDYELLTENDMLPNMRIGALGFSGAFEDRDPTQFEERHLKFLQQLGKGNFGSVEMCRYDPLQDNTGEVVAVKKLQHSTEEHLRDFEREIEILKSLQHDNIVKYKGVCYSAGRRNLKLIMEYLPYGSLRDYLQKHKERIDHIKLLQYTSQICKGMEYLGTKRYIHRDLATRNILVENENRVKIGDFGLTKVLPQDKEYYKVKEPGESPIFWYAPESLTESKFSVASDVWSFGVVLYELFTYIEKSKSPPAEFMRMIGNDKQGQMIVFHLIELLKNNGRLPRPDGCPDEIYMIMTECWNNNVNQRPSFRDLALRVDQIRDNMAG
# [5] = system: Blood; test: Inhibition of IL2-induced IFN-gamma production in human whole blood incubated for 18 hrs by ELISA method; type: functional, tissue-based
# [6] = (§1) Fraction unbound in human serum; type: ADME, cell-free
# [7] = system: Serum; test: as §1; type: ADME, cell-free
# [8] = Permeability by PAMPA method; type: ADME; conditions: read-out: permeability
# [9] = Permeability in human Caco2 cells; type: ADME, cell-based; conditions: Caco-2, read-out: permeability
# [10] = target: T2, Cytochrome P450 1A2 (Homo sapiens, UniProt P05177); test: Inhibition of CYP1A2 (unknown origin); type: ADME
# T2 sequence (P05177 whole entry): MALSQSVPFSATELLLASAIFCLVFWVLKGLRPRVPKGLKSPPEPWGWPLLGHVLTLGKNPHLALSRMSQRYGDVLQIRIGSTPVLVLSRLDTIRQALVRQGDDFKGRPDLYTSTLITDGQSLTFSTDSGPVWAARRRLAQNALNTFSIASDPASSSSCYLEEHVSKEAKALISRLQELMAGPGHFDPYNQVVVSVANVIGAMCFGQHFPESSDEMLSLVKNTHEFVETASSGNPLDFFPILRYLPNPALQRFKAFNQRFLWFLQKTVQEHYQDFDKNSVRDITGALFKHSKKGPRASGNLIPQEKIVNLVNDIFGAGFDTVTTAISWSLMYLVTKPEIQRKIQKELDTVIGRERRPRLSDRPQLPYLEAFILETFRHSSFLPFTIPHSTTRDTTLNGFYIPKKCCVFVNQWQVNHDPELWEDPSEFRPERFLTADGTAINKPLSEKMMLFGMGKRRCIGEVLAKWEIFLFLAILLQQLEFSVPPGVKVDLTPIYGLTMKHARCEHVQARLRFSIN
# [11] = Inhibition of […] (unknown origin); type: ADME, Homo sapiens
# [12] = target: T3, Cytochrome P450 2C8 (Homo sapiens, UniProt P10632); test: Inhibition of CYP2C8 (unknown origin); type: ADME
# T3 sequence (P10632 whole entry): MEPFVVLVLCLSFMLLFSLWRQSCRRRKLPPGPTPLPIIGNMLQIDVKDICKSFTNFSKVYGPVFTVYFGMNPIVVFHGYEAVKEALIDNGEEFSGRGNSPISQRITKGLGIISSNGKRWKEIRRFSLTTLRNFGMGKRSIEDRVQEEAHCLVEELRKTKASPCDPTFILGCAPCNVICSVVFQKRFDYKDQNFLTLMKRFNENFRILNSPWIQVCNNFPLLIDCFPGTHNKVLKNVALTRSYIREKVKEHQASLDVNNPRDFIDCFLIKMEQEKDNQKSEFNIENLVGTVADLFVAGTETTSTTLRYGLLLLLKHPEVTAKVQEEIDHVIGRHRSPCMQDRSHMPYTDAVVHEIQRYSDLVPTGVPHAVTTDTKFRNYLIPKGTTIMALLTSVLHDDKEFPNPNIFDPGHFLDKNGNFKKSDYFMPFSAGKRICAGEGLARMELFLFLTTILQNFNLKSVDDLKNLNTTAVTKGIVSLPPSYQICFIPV
# [13] = target: Cytochrome P450 2C9 (Homo sapiens, UniProt P11712); test: Inhibition of CYP2C9 (unknown origin); type: ADME
# Chain of Cytochrome P450 2C9 (P11712 whole entry): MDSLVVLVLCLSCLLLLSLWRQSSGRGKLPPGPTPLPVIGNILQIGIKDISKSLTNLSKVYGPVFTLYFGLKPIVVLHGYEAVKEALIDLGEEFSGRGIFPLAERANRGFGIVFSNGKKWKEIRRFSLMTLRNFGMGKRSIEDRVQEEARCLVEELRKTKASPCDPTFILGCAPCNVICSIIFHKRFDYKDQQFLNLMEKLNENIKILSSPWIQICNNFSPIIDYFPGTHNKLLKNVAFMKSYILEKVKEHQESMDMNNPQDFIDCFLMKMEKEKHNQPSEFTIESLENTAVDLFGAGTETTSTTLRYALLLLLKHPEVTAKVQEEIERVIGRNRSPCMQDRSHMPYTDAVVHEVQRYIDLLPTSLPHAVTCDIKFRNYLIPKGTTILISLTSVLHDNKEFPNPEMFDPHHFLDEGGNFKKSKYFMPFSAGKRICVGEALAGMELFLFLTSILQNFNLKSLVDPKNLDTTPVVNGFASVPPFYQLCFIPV
# [14] = target: Cytochrome P450 2D6 (Homo sapiens, UniProt P10635); test: Inhibition of CYP2D6 (unknown origin); type: ADME
# Chain of Cytochrome P450 2D6 (P10635 whole entry): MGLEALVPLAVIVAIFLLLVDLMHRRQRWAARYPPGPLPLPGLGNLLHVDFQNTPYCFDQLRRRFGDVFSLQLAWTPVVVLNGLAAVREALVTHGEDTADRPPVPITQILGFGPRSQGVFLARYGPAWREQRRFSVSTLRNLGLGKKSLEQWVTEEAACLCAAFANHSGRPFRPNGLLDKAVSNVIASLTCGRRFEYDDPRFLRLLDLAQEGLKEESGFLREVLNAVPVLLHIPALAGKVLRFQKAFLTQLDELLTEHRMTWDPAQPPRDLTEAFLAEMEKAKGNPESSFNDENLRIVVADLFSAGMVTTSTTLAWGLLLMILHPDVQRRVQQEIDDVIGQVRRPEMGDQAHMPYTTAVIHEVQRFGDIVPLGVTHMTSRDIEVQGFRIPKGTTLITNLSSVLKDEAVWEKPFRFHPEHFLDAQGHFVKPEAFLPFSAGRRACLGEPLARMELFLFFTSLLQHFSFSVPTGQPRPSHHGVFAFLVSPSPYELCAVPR
# [15] = target: Cytochrome P450 3A4 (Homo sapiens, UniProt P08684); test: Inhibition of CYP3A4 (unknown origin); type: ADME
# Chain of Cytochrome P450 3A4 (P08684 whole entry): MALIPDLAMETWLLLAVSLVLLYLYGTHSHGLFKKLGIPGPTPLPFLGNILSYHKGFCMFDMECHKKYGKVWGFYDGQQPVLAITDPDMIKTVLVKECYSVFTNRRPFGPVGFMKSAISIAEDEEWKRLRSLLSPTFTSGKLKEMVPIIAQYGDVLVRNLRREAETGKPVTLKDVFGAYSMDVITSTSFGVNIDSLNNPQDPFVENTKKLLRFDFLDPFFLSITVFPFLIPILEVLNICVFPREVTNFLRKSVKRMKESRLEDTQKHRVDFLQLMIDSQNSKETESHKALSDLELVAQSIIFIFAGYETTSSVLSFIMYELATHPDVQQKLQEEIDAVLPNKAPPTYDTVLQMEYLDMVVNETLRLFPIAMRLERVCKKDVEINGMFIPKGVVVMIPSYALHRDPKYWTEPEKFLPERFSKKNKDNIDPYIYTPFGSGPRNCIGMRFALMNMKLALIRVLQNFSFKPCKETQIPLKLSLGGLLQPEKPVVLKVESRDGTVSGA
# [16] = Half life mouse liver microsomes; type: ADME
# [17] = Half life human liver microsomes; type: ADME
# [18] = AUC in balb/c mouse at 2 mg/kg, iv; type: ADME, organism-based; parameters: dose 2 mg/kg, route intravenous; conditions: plasma
# [19] = Half life in balb/c mouse at 2 mg/kg, iv; type: ADME, organism-based; parameters: dose 2 mg/kg, route intravenous; conditions: in vivo
# [20] = Clearance in balb/c mouse at 2 mg/kg, iv; type: ADME, organism-based; parameters: dose 2 mg/kg, route intravenous; conditions: in vivo
# [21] = Volume of distribution at steady state in balb/c mouse at 2 mg/kg, iv; type: ADME, organism-based; parameters: dose 2 mg/kg, route intravenous; conditions: in vivo, read-out: Vdss
# [22] = Cmax in balb/c mouse at 2 mg/kg, po; type: ADME, organism-based; parameters: dose 2 mg/kg, route oral; conditions: in vivo
# [23] = Tmax in balb/c mouse at 2 mg/kg, po; type: ADME, organism-based; parameters: dose 2 mg/kg, route oral; conditions: in vivo
# [24] = AUC in balb/c mouse at 2 mg/kg, po; type: ADME, organism-based; parameters: dose 2 mg/kg, route oral; conditions: plasma
# [25] = Half life in balb/c mouse at 2 mg/kg, po; type: ADME, organism-based; parameters: dose 2 mg/kg, route oral; conditions: in vivo
# [26] = Oral bioavailability in balb/c mouse at 2 mg/kg; type: ADME, organism-based; conditions: in vivo
# [27] = Cmax in balb/c mouse at 10 mg/kg, po; type: ADME, organism-based; parameters: dose 10 mg/kg, route oral; conditions: in vivo
# [28] = Tmax in balb/c mouse at 10 mg/kg, po; type: ADME, organism-based; parameters: dose 10 mg/kg, route oral; conditions: in vivo
# [29] = AUC in balb/c mouse at 10 mg/kg, po; type: ADME, organism-based; parameters: dose 10 mg/kg, route oral; conditions: plasma
# [30] = Half life in balb/c mouse at 10 mg/kg, po; type: ADME, organism-based; parameters: dose 10 mg/kg, route oral; conditions: in vivo
# [31] = Oral bioavailability in balb/c mouse at 10 mg/kg; type: ADME, organism-based; conditions: in vivo
# [32] = Cmax in balb/c mouse at 50 mg/kg, po; type: ADME, organism-based; parameters: dose 50 mg/kg, route oral; conditions: in vivo
# [33] = Tmax in balb/c mouse at 50 mg/kg, po; type: ADME, organism-based; parameters: dose 50 mg/kg, route oral; conditions: in vivo
# [34] = AUC in balb/c mouse at 50 mg/kg, po; type: ADME, organism-based; parameters: dose 50 mg/kg, route oral; conditions: plasma
# [35] = Half life in balb/c mouse at 50 mg/kg, po; type: ADME, organism-based; parameters: dose 50 mg/kg, route oral; conditions: in vivo
# [36] = Oral bioavailability in balb/c mouse at 50 mg/kg; type: ADME, organism-based; conditions: in vivo
smiles,measurement,setting,value
CC1(C)CCC[C@@H]1Nc1c(C(N)=O)cnn2cccc12,IC50,[1],0.066 µM
same,IC50,[2],0.056 µM
same,IC50,[3],0.13 µM
same,IC50,[4],0.13 µM
CC1(C)[C@@H](O)CC[C@H]1Nc1c(C(N)=O)cnn2cccc12 (racemic),IC50,[1],0.016 µM
same,IC50,[2],0.062 µM
same,IC50,[3],0.079 µM
same,IC50,[4],0.13 µM
same,IC50,[5],1.2 µM
C[C@H](Nc1c(C(N)=O)cnn2cccc12)C(C)(C)C,IC50,[1],0.11 µM
same,IC50,[2],0.27 µM
same,IC50,[3],0.68 µM
same,IC50,[4],0.57 µM
C[C@@]1(O)CCC[C@H]1Nc1c(C(N)=O)cnn2cccc12 (racemic),IC50,[1],0.042 µM
same,IC50,[2],0.27 µM
same,IC50,[5],5.3 µM
CC1(C)[C@H](N)CC[C@H]1Nc1c(C(N)=O)cnn2cccc12 (racemic),IC50,[1],0.024 µM
same,IC50,[2],0.041 µM
same,IC50,[3],0.11 µM
same,IC50,[4],0.17 µM
same,IC50,[5],0.25 µM
CC1(C)C[C@@](C)(O)C[C@H]1Nc1c(C(N)=O)cnn2cccc12 (racemic),IC50,[1],0.03 µM
same,IC50,[2],0.15 µM
same,IC50,[3],0.28 µM
same,IC50,[4],0.35 µM
same,IC50,[5],3.2 µM
CC1(C)[C@@H](N)CC[C@H]1Nc1c(C(N)=O)cnn2cccc12 (racemic),IC50,[1],0.012 µM
same,IC50,[2],0.034 µM
same,IC50,[3],0.11 µM
same,IC50,[4],0.13 µM
same,IC50,[5],0.26 µM
same,fraction unbound,[6],0.44
C[C@@]1(CO)CCC[C@H]1Nc1c(C(N)=O)cnn2cccc12 (racemic),IC50,[1],0.14 µM
same,IC50,[2],0.25 µM
same,IC50,[3],0.39 µM
same,IC50,[4],0.38 µM
CC1(C)[C@H](Nc2c(C(N)=O)cnn3cccc23)CC[C@]1(C)N,IC50,[1],0.005 µM
same,IC50,[2],0.019 µM
same,IC50,[3],0.097 µM
same,IC50,[4],0.062 µM
same,IC50,[5],0.21 µM
same,Fu,[7],52%
C[C@]1(F)CCC[C@H]1Nc1c(C(N)=O)cnn2cccc12,IC50,[1],0.001 µM
same,IC50,[2],0.009 µM
same,IC50,[3],0.002 µM
same,IC50,[4],0.018 µM
same,IC50,[5],0.26 µM
same,fraction unbound,[6],0.11
same,Papp,[8],76.6 ×10⁻⁶ cm/s
same,Papp,[9],25.6 ×10⁻⁶ cm/s
same,IC50,[10],> 20 µM
same,IC50,[11],> 20 µM
same,IC50,[12],> 20 µM
same,IC50,[13],> 20 µM
same,IC50,[14],> 20 µM
same,IC50,[15],> 20 µM
same,half-life,[16],34 min
same,half-life,[17],20 min
same,AUC,[18],2 µM·h
same,half-life,[19],72 min
same,clearance,[20],60 mL/min/kg
same,Vd,[21],4.8 L/kg
same,Cmax,[22],480 nM
same,Tmax,[23],30 min
same,AUC,[24],0.87 µM·h
same,half-life,[25],84 min
same,bioavailability,[26],45%
same,Cmax,[27],2600 nM
same,Tmax,[28],30 min
same,AUC,[29],5.7 µM·h
same,half-life,[30],96 min
same,bioavailability,[31],59%
same,Cmax,[32],8200 nM
same,Tmax,[33],30 min
same,AUC,[34],21 µM·h
same,half-life,[35],120 min
same,bioavailability,[36],46%
CC1(C)[C@H](Nc2c(C(N)=O)cnn3cccc23)CC[C@@]1(C)O (racemic),IC50,[1],0.003 µM
same,IC50,[2],0.026 µM
same,IC50,[3],0.007 µM
same,IC50,[4],0.031 µM
same,IC50,[5],0.36 µM
same,fraction unbound,[6],0.16
CC1(C)[C@H](Nc2c(C(N)=O)cnn3cccc23)CC[C@@]1(C)N,IC50,[1],0.032 µM
same,IC50,[2],0.071 µM
same,IC50,[3],0.052 µM
same,IC50,[4],0.28 µM
same,IC50,[5],0.18 µM
same,fraction unbound,[6],0.52
